Assay results published in US11602534B2, “Pyrimidine derivative kinase inhibitors” (HEFEI INSTITUTES OF PHYSICAL SCIENCE, CHINESE ACADEMY OF …, priority 2017, dated 2023).
Where a name gives a salt, the structure may show the parent alone.

Assays:
Tel-cKit-BaF3 = test: Proliferation of Tel-cKit-BaF3 cells, CCK8 cell viability assay; assay type: cell-based, mouse; settings: Mus musculus; 72 hours, CCK8; stably expressing cKIT kinase
Source text: (§1) In this example the following cells were used: […] (purchased from ATCC), mouse P210-BaF3 (stably expressing BCR-ABL mutant activated kinase), mouse P210/T315I-BaF3 (stably expressing BCR-ABL/T315I mutant activated kinase), mouse FLT3-ITD-BaF3 (stably expressing FLT3/ITD mutant activated kinase), mouse TEL-FLT3-BaF3 (stably expressing FLT3 kinase), mouse TEL-cKIT-BaF3 (stably expressing cKIT kinase), mouse BaF3-tel/T670I-cKit (stably expressing cKIT/T670I mutant activated kinase), mouse Tel-VEGFR2-BaF3 (stably expressing VEGFR2 kinase), mouse Tel-PDGFRα-BaF3 (stably expressing PDGFRα kinase), mouse Tel-PDGFRβ-BaF3 (stably expressing PDGFRβ kinase), mouse Tel-RET-BaF3 (stably expressing RET kinase). The above cell lines were all constructed by our laboratory according to the following method: the kinase region sequences of human P210, P210/T315I, FLT3/ITD, FLT3, cKIT, cKIT/T670I, VEGFR2, PDGFRα, PDGFRβ, RET were respectively amplified by PCR, and inserted into MSCV-Puro vectors having N-terminal TEL or TPR fragments (Clontech). The vectors were stably transfected into mouse BaF3 cells by means of retrovirus, and the growth factor IL-3 were removed, eventually obtaining cell lines that depend on transferred protein P210, P210/T315I, FLT3/ITD, FLT3, cKIT, cKIT/T670I, VEGFR2, PDGFRα, PDGFRβ, or RET.
(§2) GI50 (unit: μM) was calculated by quantifying the number of living cells based on quantitative measurement of reductive dehydrogenase in living cells with CCK8 cell viability assay kit (Bestbio, China).

TEL-VEGFR2-BaF3 = test: Proliferation of TEL-VEGFR2-BaF3 cells, CCK8 cell viability assay; assay type: cell-based; settings: Mus musculus, 72 hours, stably expressing VEGFR2 kinase
Source text: as §1, §2

FLT3-ITD-BaF3 = test: Proliferation of FLT3-ITD-BaF3 cells, CCK8 cell viability assay; assay type: cell-based; settings: Mus musculus, 72 hours, stably expressing FLT3/ITD
Source text: as §1, §2

Tel-FLT3-BaF3 = test: Proliferation of Tel-FLT3-BaF3 cells, CCK8 cell viability assay; assay type: cell-based; settings: Mus musculus, 72 hours, stably expressing FLT3 kinase
Source text: as §1, §2

TEL-PDGFRβ-BaF3 = test: Proliferation of TEL-PDGFRβ-BaF3 cells, CCK8 cell viability assay; assay type: cell-based; settings: Mus musculus, 72 hours, stably expressing PDGFRβ kinase
Source text: as §1, §2

Tel-cKit/T670I-BaF3 = test: Proliferation of Tel-cKit/T670I-BaF3 cells, CCK8 cell viability assay; assay type: cell-based; settings: Mus musculus, 72 hours, stably expressing cKIT/T670I
Source text: as §1, §2

BaF3 = test: Proliferation of BaF3 cells, CCK8 cell viability assay; assay type: cell-based; settings: Mus musculus, 72 hours
Source text: as §1, §2

Tel-RET-BaF3 = test: Proliferation of Tel-RET-BaF3 cells, CCK8 cell viability assay; assay type: cell-based; settings: Mus musculus, 72 hours, stably expressing RET kinase
Source text: as §1, §2

TEL-PDGFRα-BaF3 = test: Proliferation of TEL-PDGFRα-BaF3 cells, CCK8 cell viability assay; assay type: cell-based; settings: Mus musculus, 72 hours, stably expressing PDGFRα kinase
Source text: as §1, §2

P210/T315I-BaF3 = test: Proliferation of P210/T315I-BaF3 cells, CCK8 cell viability assay; assay type: cell-based; settings: Mus musculus, 72 hours, stably expressing BCR-ABL/T315I
Source text: as §1, §2

P210-BaF3 = test: Proliferation of P210-BaF3 cells, CCK8 cell viability assay; assay type: cell-based; settings: Mus musculus, 72 hours, stably expressing BCR-ABL mutant activated kinase
Source text: as §1, §2

SMILES	GI50 (Tel-cKit-BaF3) [nM]	GI50 (TEL-VEGFR2-BaF3) [nM]	GI50 (FLT3-ITD-BaF3) [nM]	GI50 (Tel-FLT3-BaF3) [nM]	GI50 (TEL-PDGFRβ-BaF3) [nM]	GI50 (Tel-cKit/T670I-BaF3) [µM]	GI50 (BaF3) [µM]	GI50 (Tel-RET-BaF3) [µM]	GI50 (TEL-PDGFRα-BaF3) [nM]	GI50 (P210/T315I-BaF3) [µM]	GI50 (P210-BaF3) [µM]
Cc1ccc(NC(=O)Nc2ccc(Oc3cc(N4CCNC[C@@H]4C)ncn3)cc2)cc1C(F)(F)F [Example 107, (S)-1-(4-methyl-3-(trifluoromethyl)phenyl)-3-(4-((6-(2-methylpiperazin-1-yl)pyrimidin-4-yl)oxy)phenyl)urea]	2850	508	150	340	117	0.94	8.12	1.98	34	–	–
Cc1ccc(NC(=O)Nc2ccc(Oc3cc(N4CCN(C(=O)OC(C)(C)C)C[C@H]4CO)ncn3)cc2)cc1C(F)(F)F [Example 110, (S)-3-(hydroxymethyl)-4-(6-(4-(3-(4-methyl-3-(trifluoromethyl)phenyl)ureido)phenoxy)pyrimidin-4-yl)piperazin-1-tert-butyl Formate]	2250	4620	182	4860	270	5.29	> 10	6.21	60	–	–
Cc1ccc(NC(=O)Nc2ccc(Oc3cc(NC4CCNCC4)ncn3)cc2)cc1C(F)(F)F [Example 103, 1-(4-methyl-3-trifluoromethyl-phenyl)-3-{4-[6-(piperidin-4-ylamino)-pyrimidin-4-yloxy]-phenyl}-urea]	3220	2890	190	480	355	9.53	> 10	> 10	70	–	–
CC[C@@H]1CN(C(=O)OC(C)(C)C)CCN1c1cc(Oc2ccc(NC(=O)Nc3ccc(C)c(C(F)(F)F)c3)cc2)ncn1 [Example 111, (R)-3-ethyl-4-(6-(4-(3-(4-methyl-3-(trifluoromethyl)phenyl)ureido)phenoxy)pyrimidin-4-yl)piperazin-1-tert-butyl formate]	6050	1740	141	6160	690	8.6	> 10	> 10	190	–	–
CC(=O)Nc1cc(Oc2ccc(NC(=O)C(O)c3ccccc3F)cc2)ncn1 (stereo not drawn) [Example 63, N-[4-(6-acetylamino-pyrimidin-4-yloxy)-phenyl]-2-(2-fluoro-phenyl)-2-hydroxy-acetamide]	> 10000	3430	325	4680	5750	> 10	> 10	–	476	> 10	> 10
CC(C)(C)C(=O)Nc1cc(Oc2ccc(NC(=O)Cc3ccc(C(F)(F)F)cc3)cc2)ncn1 [Example 52, 2,2-dimethyl-N-(6-{4-[2-(4-trifluoromethyl-phenyl)-acetylamino]-phenoxy}-pyrimidin-4-yl)-propanamide]	2260	3420	374	3000	92	5.68	> 10	–	33	> 10	> 10
COc1ccc(CC(=O)Nc2ccc(Oc3cc(NC(C)=O)ncn3)cc2)cc1OC [Example 61, N-[4-(6-acetylamino-pyrimidin-4-yloxy)-phenyl]-2-(3,4-dimethoxy-phenyl)-acetamide]	4890	1780	63	1390	233	> 10	5.71	–	74	9.77	5.61

The next compounds have a lower GI50 (Tel-cKit-BaF3) than those just listed; values first:

GI50 (Tel-cKit-BaF3) [nM]	GI50 (TEL-VEGFR2-BaF3) [nM]	GI50 (FLT3-ITD-BaF3) [nM]	GI50 (Tel-FLT3-BaF3) [nM]	GI50 (TEL-PDGFRβ-BaF3) [nM]	GI50 (Tel-cKit/T670I-BaF3) [µM]	GI50 (BaF3) [µM]	GI50 (Tel-RET-BaF3) [µM]	GI50 (TEL-PDGFRα-BaF3) [nM]	GI50 (P210/T315I-BaF3) [µM]	GI50 (P210-BaF3) [µM]	SMILES
2120	2280	413	2190	190	4.25	9.87	3.97	52	–	–	Cc1ccc(NC(=O)Nc2ccc(Oc3cc(N4CCN(C(=O)CC(C)(C)C)C[C@H]4C)ncn3)cc2)cc1C(F)(F)F [Example 115, (R)-1-(4-((6-(4-(3,3-dimethylbutyryl)-2-methylpiperazin-1-yl)pyrimidin-4-yl)oxy)phenyl)-3-(4-methyl-3-(trifluoromethyl)phenyl)urea]
990	323	86	200	195	2.16	9.67	2.75	14	–	–	Cc1ccc(NC(=O)Nc2ccc(Oc3cc(N4CCNC[C@H]4C)ncn3)cc2)cc1C(F)(F)F [Example 105, (R)-1-(4-methyl-3-(trifluoromethyl)phenyl)-3-(4-((6-(2-methylpiperazin-1-yl)pyrimidin-4-yl)oxy)phenyl)urea]
970	98	9	11	324	7.82	> 10	3.88	16	–	–	CN1CCN(Cc2ccc(NC(=O)Nc3ccc(Oc4cc(NCCN)ncn4)cc3)cc2C(F)(F)F)CC1 [Example 108, 1-{4-[6-(2-amino-ethylamino)-pyrimidin-4-yloxy]-phenyl}-3-[4-(4-methyl-piperazin-1-ylmethyl)-3-trifluoromethyl-phenyl]-urea]
999	145	7	11	392	3.36	3.54	0.46	13	–	–	CCN1CCN(Cc2ccc(NC(=O)Nc3ccc(Oc4cc(NCCN)ncn4)cc3)cc2C(F)(F)F)CC1 [Example 109, 1-{4-[6-(2-amino-ethylamino)-pyrimidin-4-yloxy]-phenyl}-3-[4-(4-ethyl-piperazin-1-ylmethyl)-3-trifluoromethyl-phenyl]-urea]
1520	1660	30	600	342	8.08	9.01	5.82	63	–	–	Cc1ccc(NC(=O)Nc2ccc(Oc3cc(N4CCN(C(=O)OC(C)(C)C)C[C@H]4C)ncn3)cc2)cc1C(F)(F)F [Example 100, (R)-3-methyl-4-(6-(4-(3-(4-methyl-3-(trifluoromethyl)phenyl)ureido)phenoxy)pyrimidin-4-yl)piperazin-1-tert-butyl Formate]
